Measurements as given in patent publication US11464782B2, “Method of treating pain or interstitial cystitis using indole compound” (Japan Tobacco Inc., priority 2018, dated 2022).
Counter-ions that a name gives are not always drawn.

Columns and labels:
[1] = tested on: NGF-induced mechanical hyperalgesia; assay: NGF-induced mechanical hyperalgesia in rats (pressure analgesy-meter, paw withdrawal threshold); assay type: in vivo, rat
Experimental: In order to induce a pain-related behavior (withdrawal behavior), NGF was injected into the plantar area of the left hind paw of rats and the thermal latencies/mechanical thresholds were measured. The effects of Compound A on these withdrawal behaviors were investigated. At 2 days before the injection of NGF, the thermal latencies or mechanical thresholds were measured for acclimation to the experimental environment. On the day before injection of NGF, body weights and values of the thermal latencies or mechanical thresholds were obtained. 50 μL of NGF solution was injected intraplantar to left hind paw of rats. 0.5 μg/site of NGF was selected in the evaluation of thermal stimuli and 1 μg/site was selected in that of mechanical stimuli. A monohydrochloride of Compound A (1, 3, or 10 mg/kg) was administered orally at the same time as the NGF injection. The latencies to thermal stimuli were measured at 3 and 6 hours after injection of NGF solution, and the thresholds to mechanical stimuli were measured at 1, 3 and 6 hours after injection of NGF solution. The evaluation was performed as a blind test of each group. The mechanical threshold was measured using a pressure analgesy-meter. A mechanical stimulus (pressure) increased at a constant rate was added to the hind paw, and the pressure under load until animals withdrew its hind paw or vocalization was recorded as the mechanical threshold (mmHg).

[2] = tested on: NGF-induced thermal hyperalgesia; assay: NGF-induced thermal hyperalgesia in rats (plantar test, paw withdrawal latency); assay type: in vivo, rat
Experimental: In order to induce a pain-related behavior (withdrawal behavior), NGF was injected into the plantar area of the left hind paw of rats and the thermal latencies/mechanical thresholds were measured. The effects of Compound A on these withdrawal behaviors were investigated. At 2 days before the injection of NGF, the thermal latencies or mechanical thresholds were measured for acclimation to the experimental environment. On the day before injection of NGF, body weights and values of the thermal latencies or mechanical thresholds were obtained. 50 μL of NGF solution was injected intraplantar to left hind paw of rats. 0.5 μg/site of NGF was selected in the evaluation of thermal stimuli and 1 μg/site was selected in that of mechanical stimuli. A monohydrochloride of Compound A (1, 3, or 10 mg/kg) was administered orally at the same time as the NGF injection. The latencies to thermal stimuli were measured at 3 and 6 hours after injection of NGF solution, and the thresholds to mechanical stimuli were measured at 1, 3 and 6 hours after injection of NGF solution. The evaluation was performed as a blind test of each group. The thermal latency was measured using a plantar test apparatus. An infrared heat stimuli was delivered to the plantar area of the hind paw and the time to withdraw the paw from the heat source was recorded automatically as the thermal latency. The measurement was performed 5 times for both hind paws of each animal, the averages of the last 3 values in each hind paw were accounted as the thermal latencies of each animal. The measurement for acclimation was performed only 3 times.

[3] = 1 mg/kg oral, right hind paw (uninjected side), 3 hr
[4] = 1 mg/kg oral, right hind paw (uninjected side), 6 hr
[5] = 1 mg/kg oral, right hind paw (uninjected side), pre
[6] = 3 mg/kg oral, right hind paw (uninjected side), 3 hr
[7] = 3 mg/kg oral, right hind paw (uninjected side), 6 hr
[8] = 3 mg/kg oral, right hind paw (uninjected side), pre
[9] = 10 mg/kg oral, right hind paw (uninjected side), 3 hr
[10] = 10 mg/kg oral, right hind paw (uninjected side), 6 hr
[11] = 10 mg/kg oral, right hind paw (uninjected side), pre

C[C@@H](C(=O)N(C)c1ccc2cc(-c3n[nH]c4c3CCC(C)(C)C4)[nH]c2c1)N1CCOCC1 [Compound A•HCl]
Paw Withdrawal Threshold (mmHg) ([1]; 1 mg/kg oral, left hind paw (injected side, NGF 1 μg/site), 1 hr): 107 ± 17 mmHg
Paw Withdrawal Threshold (mmHg) ([1]; 1 mg/kg oral, left hind paw (injected side, NGF 1 μg/site), 3 hr): 104 ± 20 mmHg
Paw Withdrawal Threshold (mmHg) ([1]; 1 mg/kg oral, left hind paw (injected side, NGF 1 μg/site), 6 hr): 90 ± 11 mmHg
Paw Withdrawal Threshold (mmHg) ([1]; 1 mg/kg oral, left hind paw (injected side, NGF 1 μg/site), Pre): 126 ± 21 mmHg
Paw Withdrawal Threshold (mmHg) ([1]; 1 mg/kg oral, right hind paw (uninjected side), 1 hr): 134 ± 16 mmHg
Paw Withdrawal Threshold (mmHg) [1, 3]: 135 ± 21 mmHg
Paw Withdrawal Threshold (mmHg) [1, 4]: 133 ± 9 mmHg
Paw Withdrawal Threshold (mmHg) [1, 5]: 132 ± 15 mmHg
Paw Withdrawal Threshold (mmHg) ([1]; 3 mg/kg oral, left hind paw (injected side, NGF 1 μg/site), 1 hr): 118 ± 17 mmHg
Paw Withdrawal Threshold (mmHg) ([1]; 3 mg/kg oral, left hind paw (injected side, NGF 1 μg/site), 3 hr): 121 ± 21 mmHg
Paw Withdrawal Threshold (mmHg) ([1]; 3 mg/kg oral, left hind paw (injected side, NGF 1 μg/site), 6 hr): 106 ± 11 mmHg
Paw Withdrawal Threshold (mmHg) ([1]; 3 mg/kg oral, left hind paw (injected side, NGF 1 μg/site), Pre): 152 ± 26 mmHg
Paw Withdrawal Threshold (mmHg) ([1]; 3 mg/kg oral, right hind paw (uninjected side), 1 hr): 133 ± 19 mmHg
Paw Withdrawal Threshold (mmHg) [1, 6]: 141 ± 10 mmHg
Paw Withdrawal Threshold (mmHg) [1, 7]: 144 ± 23 mmHg
Paw Withdrawal Threshold (mmHg) [1, 8]: 148 ± 25 mmHg
Paw Withdrawal Threshold (mmHg) ([1]; 10 mg/kg oral, left hind paw (injected side, NGF 1 μg/site), 1 hr): 130 ± 20 mmHg
Paw Withdrawal Threshold (mmHg) ([1]; 10 mg/kg oral, left hind paw (injected side, NGF 1 μg/site), 3 hr): 134 ± 22 mmHg
Paw Withdrawal Threshold (mmHg) ([1]; 10 mg/kg oral, left hind paw (injected side, NGF 1 μg/site), 6 hr): 130 ± 18 mmHg
Paw Withdrawal Threshold (mmHg) ([1]; 10 mg/kg oral, left hind paw (injected side, NGF 1 μg/site), Pre): 136 ± 17 mmHg
Paw Withdrawal Threshold (mmHg) ([1]; 10 mg/kg oral, right hind paw (uninjected side), 1 hr): 144 ± 14 mmHg
Paw Withdrawal Threshold (mmHg) [1, 9]: 139 ± 17 mmHg
Paw Withdrawal Threshold (mmHg) [1, 10]: 139 ± 13 mmHg
Paw Withdrawal Threshold (mmHg) [1, 11]: 139 ± 17 mmHg
Paw Withdrawal Latency ([2]; 1 mg/kg oral, left hind paw (injected side, NGF 0.5 μg/site), 3 hr): 10.0 ± 2.6 s
Paw Withdrawal Latency ([2]; 1 mg/kg oral, left hind paw (injected side, NGF 0.5 μg/site), 6 hr): 8.7 ± 2.0 s
Paw Withdrawal Latency ([2]; 1 mg/kg oral, left hind paw (injected side, NGF 0.5 μg/site), pre): 11.4 ± 1.2 s
Paw Withdrawal Latency [2, 3]: 10.9 ± 1.4 s
Paw Withdrawal Latency [2, 4]: 10.8 ± 2.4 s
Paw Withdrawal Latency [2, 5]: 11.6 ± 1.1 s
Paw Withdrawal Latency ([2]; 3 mg/kg oral, left hind paw (injected side, NGF 0.5 μg/site), 3 hr): 10.3 ± 1.6 s
Paw Withdrawal Latency ([2]; 3 mg/kg oral, left hind paw (injected side, NGF 0.5 μg/site), 6 hr): 9.9 ± 1.5 s
Paw Withdrawal Latency ([2]; 3 mg/kg oral, left hind paw (injected side, NGF 0.5 μg/site), pre): 11.2 ± 1.9 s
Paw Withdrawal Latency [2, 6]: 12.3 ± 2.2 s
Paw Withdrawal Latency [2, 7]: 11.9 ± 1.9 s
Paw Withdrawal Latency [2, 8]: 11.6 ± 1.5 s
Paw Withdrawal Latency ([2]; 10 mg/kg oral, left hind paw (injected side, NGF 0.5 μg/site), 3 hr): 11.6 ± 2.4 s
Paw Withdrawal Latency ([2]; 10 mg/kg oral, left hind paw (injected side, NGF 0.5 μg/site), 6 hr): 11.3 ± 1.4 s
Paw Withdrawal Latency ([2]; 10 mg/kg oral, left hind paw (injected side, NGF 0.5 μg/site), pre): 12.0 ± 1.1 s
Paw Withdrawal Latency [2, 9]: 11.9 ± 2.7 s
Paw Withdrawal Latency [2, 10]: 11.5 ± 1.2 s
Paw Withdrawal Latency [2, 11]: 11.9 ± 1.2 s
